In PubChem BioAssay AID2060483 (Molecular Pharmacology Branch, DTP, NCI, 2025):

Tested on: K24384-001-R-PDC complex spheroids, viability
Test: Anticancer human tumor K24384-001-R-PDC patient-derived pancreatic adenocarcinoma cell line growth inhibition [GQUAD]
Conditions: for IC50: curve of first compound; for viability, T/C: stronger effect = lower value
How it was run: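 Multi-cell-type spheroids of tumor cells with HUVEC and mesenchymal stem cells, treated with drug combinations. Concentrations descend in half-log steps from near clinical Cmax, or from 10 microM where Cmax is unknown; viability read-out.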

[1] = second compound 0.0316 µM, first compound 0.0316 µM
[2] = second compound 0.0316 µM, first compound 0.1 µM
[3] = second compound 0.0316 µM, first compound 0.316 µM
[4] = second compound 0.0316 µM, first compound 1 µM
[5] = second compound 0.0316 µM, first compound 3.16 µM
[6] = second compound 0.0316 µM, first compound 10 µM
[7] = second compound 0.1 µM, first compound 0.0316 µM
[8] = second compound 0.1 µM, first compound 0.1 µM
[9] = second compound 0.1 µM, first compound 0.316 µM
[10] = second compound 0.1 µM, first compound 1 µM
[11] = second compound 0.1 µM, first compound 3.16 µM
[12] = second compound 0.1 µM, first compound 10 µM
[13] = second compound 0.316 µM, first compound 0.0316 µM
[14] = second compound 0.316 µM, first compound 0.1 µM
[15] = second compound 0.316 µM, first compound 0.316 µM
[16] = second compound 0.316 µM, first compound 1 µM
[17] = second compound 0.316 µM, first compound 3.16 µM
[18] = second compound 0.316 µM, first compound 10 µM
[19] = second compound 1 µM, first compound 0.0316 µM
[20] = second compound 1 µM, first compound 0.1 µM
[21] = second compound 1 µM, first compound 0.316 µM
[22] = second compound 1 µM, first compound 1 µM
[23] = second compound 1 µM, first compound 3.16 µM
[24] = second compound 1 µM, first compound 10 µM
[25] = second compound 3.16 µM, first compound 0.0316 µM
[26] = second compound 3.16 µM, first compound 0.1 µM
[27] = second compound 3.16 µM, first compound 0.316 µM
[28] = second compound 3.16 µM, first compound 1 µM
[29] = second compound 3.16 µM, first compound 3.16 µM
[30] = second compound 3.16 µM, first compound 10 µM
[31] = second compound 10 µM, first compound 0.0316 µM
[32] = second compound 10 µM, first compound 0.1 µM
[33] = second compound 10 µM, first compound 0.316 µM
[34] = second compound 10 µM, first compound 1 µM
[35] = second compound 10 µM, first compound 3.16 µM
[36] = second compound 10 µM, first compound 10 µM
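Note: spheroids exposed to compounds for seven days.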

SMILES: CC(C)n1c(=O)n(C)c2cnc3cc(F)c(-c4ccc(OCCCN5CCCCC5)nc4)cc3c21 + Cc1[nH]c2ccc(F)cc2c1-c1nc2c3cccnc3c3ncccc3c2[nH]1
- IC50 (second compound 0.0316 µM): > 10 µM
- IC50 (second compound 0.1 µM): > 10 µM
- IC50 (second compound 0.316 µM): > 10 µM
- IC50 (second compound 1 µM): > 10 µM
- IC50 (second compound 3.16 µM): > 10 µM
- IC50 (second compound 10 µM): > 10 µM
- viability, T/C [1]: 108%
- viability, T/C [2]: 96.1%
- viability, T/C [3]: 126%
- viability, T/C [4]: 110%
- viability, T/C [5]: 122%
- viability, T/C [6]: 87.5%
- viability, T/C [7]: 92.1%
- viability, T/C [8]: 129%
- viability, T/C [9]: 110%
- viability, T/C [10]: 116%
- viability, T/C [11]: 157%
- viability, T/C [12]: 91.7%
- viability, T/C [13]: 87.1%
- viability, T/C [14]: 100%
- viability, T/C [15]: 100%
- viability, T/C [16]: 96.6%
- viability, T/C [17]: 125%
- viability, T/C [18]: 146%
- viability, T/C [19]: 104%
- viability, T/C [20]: 107%
- viability, T/C [21]: 101%
- viability, T/C [22]: 99.1%
- viability, T/C [23]: 134%
- viability, T/C [24]: 107%
- viability, T/C [25]: 78.6%
- viability, T/C [26]: 89.2%
- viability, T/C [27]: 79.9%
- viability, T/C [28]: 99.4%
- viability, T/C [29]: 99.1%
- viability, T/C [30]: 83.3%
- viability, T/C [31]: 71.9%
- viability, T/C [32]: 73.4%
- viability, T/C [33]: 71.1%
- viability, T/C [34]: 96.3%
- viability, T/C [35]: 79.4%
- viability, T/C [36]: 72.1%

SMILES: Cc1cccc(N(C)C(=O)C2C(O)CCN2c2nc(C)cc(C(F)(F)F)c2C#N)c1 (stereo not drawn) + Cc1[nH]c2ccc(F)cc2c1-c1nc2c3cccnc3c3ncccc3c2[nH]1
- IC50 (second compound 0.0316 µM): > 10 µM
- IC50 (second compound 0.1 µM): > 10 µM
- IC50 (second compound 0.316 µM): > 10 µM
- IC50 (second compound 1 µM): > 10 µM
- IC50 (second compound 3.16 µM): > 10 µM
- IC50 (second compound 10 µM): > 10 µM
- viability, T/C [1]: 98.2%
- viability, T/C [2]: 90.9%
- viability, T/C [3]: 105%
- viability, T/C [4]: 95.2%
- viability, T/C [5]: 116%
- viability, T/C [6]: 117%
- viability, T/C [7]: 95.3%
- viability, T/C [8]: 102%
- viability, T/C [9]: 103%
- viability, T/C [10]: 100%
- viability, T/C [11]: 131%
- viability, T/C [12]: 118%
- viability, T/C [13]: 81.5%
- viability, T/C [14]: 103%
- viability, T/C [15]: 107%
- viability, T/C [16]: 104%
- viability, T/C [17]: 105%
- viability, T/C [18]: 128%
- viability, T/C [19]: 85.4%
- viability, T/C [20]: 91.2%
- viability, T/C [21]: 87.9%
- viability, T/C [22]: 99%
- viability, T/C [23]: 114%
- viability, T/C [24]: 93.4%
- viability, T/C [25]: 83.1%
- viability, T/C [26]: 75%
- viability, T/C [27]: 77.4%
- viability, T/C [28]: 85%
- viability, T/C [29]: 83.7%
- viability, T/C [30]: 71.8%
- viability, T/C [31]: 74.4%
- viability, T/C [32]: 85.5%
- viability, T/C [33]: 74.4%
- viability, T/C [34]: 85.6%
- viability, T/C [35]: 67.9%
- viability, T/C [36]: 75.5%

SMILES: Cn1ncnc1[C@H]1c2n[nH]c(=O)c3cc(F)cc(c23)N[C@@H]1c1ccc(F)cc1 + Cc1[nH]c2ccc(F)cc2c1-c1nc2c3cccnc3c3ncccc3c2[nH]1
- IC50 (second compound 0.0316 µM): > 0.316 µM
- IC50 (second compound 0.1 µM): > 0.316 µM
- IC50 (second compound 0.316 µM): > 0.316 µM
- IC50 (second compound 1 µM): > 0.316 µM
- IC50 (second compound 3.16 µM): > 0.316 µM
- IC50 (second compound 10 µM): > 0.316 µM
- viability, T/C (second compound 0.0316 µM, first compound 0.000999 µM): 97.8%
- viability, T/C (second compound 0.0316 µM, first compound 0.00316 µM): 94.4%
- viability, T/C (second compound 0.0316 µM, first compound 0.00999 µM): 99.6%
- viability, T/C [1]: 92%
- viability, T/C (second compound 0.0316 µM, first compound 0.0999 µM): 102%
- viability, T/C [3]: 90.4%
- viability, T/C (second compound 0.1 µM, first compound 0.000999 µM): 87.9%
- viability, T/C (second compound 0.1 µM, first compound 0.00316 µM): 98.5%
- viability, T/C (second compound 0.1 µM, first compound 0.00999 µM): 90.3%
- viability, T/C [7]: 91%
- viability, T/C (second compound 0.1 µM, first compound 0.0999 µM): 97.1%
- viability, T/C [9]: 93.2%
- viability, T/C (second compound 0.316 µM, first compound 0.000999 µM): 86.7%
- viability, T/C (second compound 0.316 µM, first compound 0.00316 µM): 103%
- viability, T/C (second compound 0.316 µM, first compound 0.00999 µM): 93%
- viability, T/C [13]: 89.5%
- viability, T/C (second compound 0.316 µM, first compound 0.0999 µM): 93%
- viability, T/C [15]: 77.9%
- viability, T/C (second compound 1 µM, first compound 0.000999 µM): 95.3%
- viability, T/C (second compound 1 µM, first compound 0.00316 µM): 100%
- viability, T/C (second compound 1 µM, first compound 0.00999 µM): 95.3%
- viability, T/C [19]: 81.8%
- viability, T/C (second compound 1 µM, first compound 0.0999 µM): 85.9%
- viability, T/C [21]: 80.8%
- viability, T/C (second compound 3.16 µM, first compound 0.000999 µM): 74%
- viability, T/C (second compound 3.16 µM, first compound 0.00316 µM): 92.9%
- viability, T/C (second compound 3.16 µM, first compound 0.00999 µM): 72.3%
- viability, T/C [25]: 73.5%
- viability, T/C (second compound 3.16 µM, first compound 0.0999 µM): 72.4%
- viability, T/C [27]: 67.3%
- viability, T/C (second compound 10 µM, first compound 0.000999 µM): 64.3%
- viability, T/C (second compound 10 µM, first compound 0.00316 µM): 79%
- viability, T/C (second compound 10 µM, first compound 0.00999 µM): 57.2%
- viability, T/C [31]: 76.1%
- viability, T/C (second compound 10 µM, first compound 0.0999 µM): 71.2%
- viability, T/C [33]: 60.4%

SMILES: O=C(c1cc(Cc2n[nH]c(=O)c3ccccc23)ccc1F)N1CCN(C(=O)C2CC2)CC1 + Cc1[nH]c2ccc(F)cc2c1-c1nc2c3cccnc3c3ncccc3c2[nH]1
- IC50 (second compound 0.0316 µM): > 10 µM
- IC50 (second compound 0.1 µM): > 10 µM
- IC50 (second compound 0.316 µM): > 10 µM
- IC50 (second compound 1 µM): > 10 µM
- IC50 (second compound 3.16 µM): > 10 µM
- IC50 (second compound 10 µM): > 10 µM
- viability, T/C [1]: 101%
- viability, T/C [2]: 94%
- viability, T/C [3]: 99.6%
- viability, T/C [4]: 94.3%
- viability, T/C [5]: 84.4%
- viability, T/C [6]: 93.1%
- viability, T/C [7]: 103%
- viability, T/C [8]: 104%
- viability, T/C [9]: 147%
- viability, T/C [10]: 98.7%
- viability, T/C [11]: 89.8%
- viability, T/C [12]: 83.9%
- viability, T/C [13]: 96.8%
- viability, T/C [14]: 97.4%
- viability, T/C [15]: 95.7%
- viability, T/C [16]: 85.7%
- viability, T/C [17]: 82.3%
- viability, T/C [18]: 91.1%
- viability, T/C [19]: 78.1%
- viability, T/C [20]: 88%
- viability, T/C [21]: 90.5%
- viability, T/C [22]: 87.5%
- viability, T/C [23]: 89%
- viability, T/C [24]: 69.7%
- viability, T/C [25]: 82.9%
- viability, T/C [26]: 78.1%
- viability, T/C [27]: 64.3%
- viability, T/C [28]: 77.9%
- viability, T/C [29]: 82%
- viability, T/C [30]: 67.3%
- viability, T/C [31]: 69.7%
- viability, T/C [32]: 70.7%
- viability, T/C [33]: 62.5%
- viability, T/C [34]: 69%
- viability, T/C [35]: 74.5%
- viability, T/C [36]: 56.1%
